In PMC6100356, “The Design and Synthesis of N-Xanthone Benzenesulfonamides as Novel Phosphoglycerate Mutase 1 (PGAM1) Inhibitors” (Molecules : A Journal of Synthetic Chemistry and Natural …, 2018):

Assays:
[1] = test system: enolase, PK, LDH; assay: Counter-screen assay (coupled enzymes without PGAM1, 2PG as substrate); type: biochemical
Protocol: The counter-screen assay was then performed to exclude the off-target inhibition against other enzymes in the in vitro assay (Table 3).

[2] = test system: H1299 cell line; assay: In vitro antiproliferation of H1299 cells (MTT method); type: cell-based; conditions: Homo sapiens, NCI-H1299, 72 h, means ± SD from three determinations
Protocol: Then, some representative compounds were picked out to evaluate their antiproliferative activity (H1299 cell line) by the MTT method (Table 4).
2 × 10^3 cells were seeded in a 96-well plate before starting the assay and they were cultured at 37 °C. After seeding for 24 h, cells were treated with inhibitors with a specific concentration and incubated at 37 °C for 72 h, followed by incubation with 0.5 mg mL^−1 MTT for 4 h at 37 °C. Then, 200 µL of DMSO was added and the absorbance was measured at 570 nm.

[3] = test system: H1299 cell; conditions: Figure 1; ref 14 (PGMI-004A), ref 20 (EGCG); cited from earlier work
[4] = test system: PGAM1; conditions: Figure 1; ref 14 (PGMI-004A), ref 20 (EGCG); cited from earlier work

| Counter-Screen Assay (5 μM), inhibition ratio against the other three enzymes [1] | IC50 [2] | Compound | IC50 [3] | IC50 [4] |
| --- | --- | --- | --- | --- |
| 12% | 14.1 ± 1.9 µM | O=c1c2c(O)cccc2oc2cc(NS(=O)(=O)c3cccc(Cl)c3F)cc(O)c12 [Compound 9h, 3-Chloro-N-(1,8-dihydroxy-9-oxo-9H-xanthen-3-yl)-2-fluorobenzenesulfonamide] | – | – |
| 12% | 21.1 ± 1.7 µM | CC(C)(C)c1ccc(S(=O)(=O)Nc2cc(O)c3c(=O)c4c(O)cccc4oc3c2)cc1 [Compound 9k, 4-(tert-Butyl)-N-(1,8-dihydroxy-9-oxo-9H-xanthen-3-yl)benzenesulfonamide] | – | – |
| 15% | 18.5 ± 2.3 µM | O=c1c2c(O)cccc2oc2cc(NS(=O)(=O)c3ccc(C4CCCCC4)cc3)cc(O)c12 [Compound 9l, 4-Cyclohexyl-N-(1,8-dihydroxy-9-oxo-9H-xanthen-3-yl)benzenesulfonamide] | – | – |
| 9% | 20.1 ± 1.4 µM | O=c1c2c(O)cccc2oc2cc(NS(=O)(=O)c3ccc(-c4ccccc4)cc3)cc(O)c12 [Compound 9m, N-(1,8-Dihydroxy-9-oxo-9H-xanthen-3-yl)-[1,1′-biphenyl]-4-sulfonamide] | – | – |
| 13% | – | O=c1c2c(O)cccc2oc2cc(NS(=O)(=O)c3cccc4ccccc34)cc(O)c12 [Compound 9n, N-(1,8-Dihydroxy-9-oxo-9H-xanthen-3-yl)naphthalene-1-sulfonamide] | – | – |
| 13% | 42.7 ± 3.9 µM | COc1cccc2c(=O)c3c(O)cc(NS(=O)(=O)c4ccc(-c5ccccc5)cc4)cc3oc12 [Compound 15b, N-(1-Hydroxy-5-methoxy-9-oxo-9H-xanthen-3-yl)-[1,1′-biphenyl]-4-sulfonamide] | – | – |
| 7% | – | Cc1cccc2c(=O)c3c(O)cc(NS(=O)(=O)c4ccc(-c5ccccc5)cc4)cc3oc12 [Compound 15c, N-(1-Hydroxy-5-methyl-9-oxo-9H-xanthen-3-yl)-[1,1′-biphenyl]-4-sulfonamide] | – | – |
| 6% | 19.6 ± 2.2 µM | COc1ccc2oc3cc(NS(=O)(=O)c4ccc(-c5ccccc5)cc4)cc(O)c3c(=O)c2c1 [Compound 15d, N-(1-Hydroxy-7-methoxy-9-oxo-9H-xanthen-3-yl)-[1,1′-biphenyl]-4-sulfonamide] | – | – |
| 7% | – | Cc1ccc2oc3cc(NS(=O)(=O)c4ccc(-c5ccccc5)cc4)cc(O)c3c(=O)c2c1 [Compound 15e, N-(1-Hydroxy-7-methyl-9-oxo-9H-xanthen-3-yl)-[1,1′-biphenyl]-4-sulfonamide] | – | – |
| 8% | 32.7 ± 0.9 µM | O=c1c2cc(Cl)ccc2oc2cc(NS(=O)(=O)c3ccc(-c4ccccc4)cc3)cc(O)c12 [Compound 15f, N-(7-Chloro-1-hydroxy-9-oxo-9H-xanthen-3-yl)-[1,1′-biphenyl]-4-sulfonamide] | – | – |
| 5% | 33.8 ± 6.1 µM | O=c1c2cc([N+](=O)[O-])ccc2oc2cc(NS(=O)(=O)c3ccc(-c4ccccc4)cc3)cc(O)c12 [Compound 15h, N-(1-Hydroxy-7-nitro-9-oxo-9H-xanthen-3-yl)-[1,1′-biphenyl]-4-sulfonamide] | – | – |
| 10% | 30.6 ± 2.4 µM | O=c1c2cc(O)ccc2oc2cc(NS(=O)(=O)c3ccc(-c4ccccc4)cc3)cc(O)c12 [Compound 15i, N-(1,7-Dihydroxy-9-oxo-9H-xanthen-3-yl)-[1,1′-biphenyl]-4-sulfonamide] | – | – |
| 7% | 31.1 ± 4.5 µM | CC(=O)Oc1ccc2oc3cc(NS(=O)(=O)c4ccc(-c5ccccc5)cc4)cc(O)c3c(=O)c2c1 [Compound 15j, 6-([1,1′-Biphenyl]-4-sulfonamido)-8-hydroxy-9-oxo-9H-xanthen-2-yl acetate] | – | – |
| – | – | O=C(O[C@@H]1Cc2c(O)cc(O)cc2O[C@@H]1c1cc(O)c(O)c(O)c1)c1cc(O)c(O)c(O)c1 [EGCG, epigallocatechin gallate] | > 80 µM | 0.49 µM |
| – | 0.193 µM | Nc1ccn([C@@H]2O[C@H](CO)[C@@H](O)C2(F)F)c(=O)n1 [Gemcitabine, reference compound] | – | – |
| – | 26 ± 2.1 µM | O=C1c2ccccc2C(=O)c2c1cc(S(=O)(=O)Nc1ccc(C(F)(F)F)cc1)c(O)c2O [PGMI-004A, reference compound] | 25.6 µM | – |
